From patent US20180044343A1, “BICYCLIC IMIDAZOLO DERIVATIVE” (Sumitomo Dainippon Pharma Co., Ltd., priority 2015, published 2018)

What was measured:
PDE1B [1] = target: T1, PDE1B (Homo sapiens, UniProt Q01064); experiment: In vitro HTRF PDE1 inhibition assay (PDE1B); assay type: biochemical; settings: in vitro PDE1B HTRF Assay; read-out: IC50
Experimental: The Cisbio cGMP HTRF assay kit (Cat no: 62GM2PEC) was utilized. Cyclic GMP was diluted to 200 nM in HTRF assay buffer (1 mM CaCl2, 10 mM MgCl2, 10 mM Tris-HCl, 0.1% BSA, pH 7.4). […] PDE (1A3, 1B or 1C) was diluted to 2× working concentration in HTRF assay buffer with 2 μg/ml Calmodulin, and 10 μl was added to initiate the reaction. The plate was then incubated for 45 minutes at 27° C. d2-Labelled cyclic GMP and anti-cGMP cryptate were diluted in 50 mM phosphate buffer, 0.8 M KF, 1% Triton X100, 0.2% BSA, pH 7.0. Following incubation 10 μl d2-cGMP, then 10 μl anti cGMP cryptate were added to each well and the plate was incubated for 60 minutes at room temperature. The plate was then read on Perkin Elmer EnVision at 2 different FRET readings ex/em 340 nm/665 nm and 340 nm/615 nm.

PDE1A3 [2] = target: T2, PDE1A3 (Homo sapiens, UniProt P54750); experiment: In vitro SPA PDE1 inhibition assay (PDE1A3); assay type: biochemical; settings: PDE1A3, [3H]-cGMP 100 nM
Experimental: (§1) The commercially available Scintillation Proximity Assay (SPA) system (Perkinelmer) was used for PDE1 inhibition assays. SPA Yttrium Silicate beads preferentially binds to non-cyclic GMP compared to cyclic GMP (cGMP) in the presence of zinc sulphate, which enables to measure the amount of enzyme reaction product ([^3H]-GMP) by scintillation counting.
(§2) For PDE1 inhibition assay, 10 μl of the test compounds in 5% dimethyl sulfoxide diluted in SPA assay buffer (1 mM CaCl2, 10 mM MgSO4, 10 mM Tris-HCl, pH 7.4) were placed in a 96-well white microtiter plate, and 20 μl of [^3H]-cGMP solution (100 nM final concentration, Perkinelmer) in SPA assay buffer was added. Assays were initiated by adding 20 μl of PDE (1A3, 1B or 1C) enzyme solution including calmodulin (final concentration 1 μg/ml). After 30 min incubation at 27° C., the reaction was stopped by the addition of 50 μl of a suspension of 10 mg/ml SPA beads in 18 mM ZnSO4. The microtiter plates were settled for 60 min, and then were measured in a TopCount NXT scintillation counter (PerkinElmer). IC50 values were determined from sigmoidal curves by plotting the percentage of PDE activity versus log compound concentration. IC50 was defined as the concentration of the test compounds required to inhibit the cyclic nucleotide hydrolyzing activities of tested PDEs by 50%.

[3] = Evaluation of bioavailability, PK test in rats; assay type: in vivo; settings: rat; 7 week-old SD rats, intravenous vs oral administration, plasma LC-MS
Experimental: This test can be used to assess pharmacokinetics of the compounds of the present invention. Each compound of the invention was administered to 7 week-old SD rats intravenously with a solution in saline: 0.1N HCl=9:1 or orally with a 0.5% suspension in methyl cellulose, and each blood sample was collected at an appropriate interval as follows:
5, 15, and 30 minutes, and 1, 2, 4, 6, and 24 hours after intravenous administration
15 and 30 minutes, and 1, 2, 4, 6, and 24 hours after oral administration
The plasma was obtained from each blood, and the concentration of each compound in the plasma was measured with an LC-MS to calculate each pharmacokinetic parameter based on the concentration change.

PDE1C [4] = target: T3, PDE1C (Homo sapiens, UniProt Q14123); experiment: In vitro SPA PDE1 inhibition assay (PDE1C); assay type: biochemical; settings: [3H]-cGMP 100 nM
Experimental: as §1, §2

PDE1C [5] = target: T3, PDE1C; experiment: In vitro HTRF PDE1 inhibition assay (PDE1C); assay type: biochemical; settings: 100 nM cyclic GMP
Excerpt: (§3) An exemplary procedure for the in vitro Homogenous Time Resolved Fluorescence assay, which can be used to determine the inhibitory action of compounds of the present invention toward PDE1 or its isoforms, follows.
(§4) The HTRF PDE1 assay utilized the HTRF (Homogenous Time Resolved Fluorescence) technology, which is based on the competition between unlabeled cyclic nucleotide and cyclic nucleotide labeled with XL665 for the binding to cyclic nucleotide-specific antibody labeled with cryptate. The HTRF signal is thus inversely proportional to the concentration of cyclic nucleotide being measured. Since phosphodiesterases break down cyclic nucleotides, the HTRF signal was used to determine PDE activity.
(§5) The Cisbio cGMP HTRF assay kit (Cat no: 62GM2PEC) was utilized. Cyclic GMP was diluted to 200 nM in HTRF assay buffer (1 mM CaCl2, 10 mM MgCl2, 10 mM Tris-HCl, 0.1% BSA, pH 7.4). 10 μl of compound or DMSO was diluted in 200 nM cyclic GMP solution and added to wells of a 96 well white plate to give 100 nM cyclic GMP in 1% DMSO final concentration. PDE (1A3, 1B or 1C) was diluted to 2× working concentration in HTRF assay buffer with 2 μg/ml Calmodulin, and 10 μl was added to initiate the reaction. The plate was then incubated for 45 minutes at 27° C. d2-Labelled cyclic GMP and anti-cGMP cryptate were diluted in 50 mM phosphate buffer, 0.8 M KF, 1% Triton X100, 0.2% BSA, pH 7.0. Following incubation 10 μl d2-cGMP, then 10 μl anti cGMP cryptate were added to each well and the plate was incubated for 60 minutes at room temperature. The plate was then read on Perkin Elmer EnVision at 2 different FRET readings ex/em 340 nm/665 nm and 340 nm/615 nm.
(§6) Compounds having an IC50 of <1 μM are denoted as +++. Compounds having an IC50 of 1-10 μM are denoted as ++. Compounds having an IC50 of 10-100 μM are denoted as +.

[6] = test system: cognitive dysfunction in PCP-treated rats; experiment: Novel object recognition test in rats repeatedly treated with phencyclidine (PCP); assay type: in vivo; settings: rats given PCP 3 mg/kg i.p. twice a day for 10 days; compound 1 or 3 mg/kg orally 60 minutes before test; compared to PCP+vehicle group
Experimental: Since an N-Methyl-D-aspartate receptor antagonist phencyclidine (PCP) has been known to cause schizophrenia-like symptoms including cognitive dysfunction in humans, PCP-treated animals have been widely used as a schizophrenic animal model. Using rats to which PCP was repeatedly administered as a schizophrenic animal model, the improvement in cognitive dysfunction with the compounds of the invention was evaluated in the novel object recognition test. Rats were habituated to the test environment which is a box (50 cm×50 cm×35 cm) with no object inside for 1 hour per day for 3 days. On the test day, rats were again put into the test box with no object inside to habituate themselves for three minutes. The rats were then put into the test box with two identical objects inside and were made to explore inside for three minutes for a training trial. After one minute, they were put into the test box with one of the objects (i.e., the familiar object) that was the same as used in the training trial and another object (i.e., a novel object) inside and were made to explore inside for three minutes for a test trial. Cognitive function was evaluated on the basis of preference for the novel object in the test trial utilizing rats' habit of exploring a novel object longer than a familiar object. Discrimination Index was calculated from the following equation as an index for preference of a novel object.
Discrimination Index=(Time to explore novel object−Time to explore familiar object)/(Time to explore novel object+Time to explore familiar object)

[7] = Test for drug transportation to brain in rats; assay type: in vivo; settings: rat; SD rats, oral, one hour after administration; non-binding drug concentration ratio between brain and plasma
Excerpt: Test for Drug Transportation to Brain in Rats
This test can be used to assess transportation of the compounds of the present invention to the brain. Each compound of the invention was orally administered to 7 week-old SD rats with a 0.5% suspension in methyl cellulose, and each plasma and brain were collected one hour after administration to measure the concentration of each compound in the plasma and the brain with an LC-MS.
Each protein binding ratio of the compounds in the plasma and the brain was measured by the equilibrium dialysis method.
The obtained concentrations and protein binding ratios of the compounds in the plasma and the brain can be applied to the following equation to calculate Kp, uu, brain (i.e., non-binding drug concentration ratio between brain and plasma).
Kp, uu, brain=[Compound concentration in brain×(100−Protein binding ratio in brain (%))/100]/[Compound concentration in plasma×(100−Protein binding ratio in plasma (%))/100]

PDE1B [8] = target: T1, PDE1B; experiment: In vitro SPA PDE1 inhibition assay (PDE1B); assay type: biochemical; settings: [3H]-cGMP 100 nM
Experimental: as §1, §2

PDE1A3 [9] = target: T2, PDE1A3; experiment: In vitro HTRF PDE1 inhibition assay (PDE1A3); assay type: biochemical; settings: PDE1A3, 100 nM cyclic GMP
Excerpt: as §3, §4, §5, §6

T1 sequence (Q01064 whole entry): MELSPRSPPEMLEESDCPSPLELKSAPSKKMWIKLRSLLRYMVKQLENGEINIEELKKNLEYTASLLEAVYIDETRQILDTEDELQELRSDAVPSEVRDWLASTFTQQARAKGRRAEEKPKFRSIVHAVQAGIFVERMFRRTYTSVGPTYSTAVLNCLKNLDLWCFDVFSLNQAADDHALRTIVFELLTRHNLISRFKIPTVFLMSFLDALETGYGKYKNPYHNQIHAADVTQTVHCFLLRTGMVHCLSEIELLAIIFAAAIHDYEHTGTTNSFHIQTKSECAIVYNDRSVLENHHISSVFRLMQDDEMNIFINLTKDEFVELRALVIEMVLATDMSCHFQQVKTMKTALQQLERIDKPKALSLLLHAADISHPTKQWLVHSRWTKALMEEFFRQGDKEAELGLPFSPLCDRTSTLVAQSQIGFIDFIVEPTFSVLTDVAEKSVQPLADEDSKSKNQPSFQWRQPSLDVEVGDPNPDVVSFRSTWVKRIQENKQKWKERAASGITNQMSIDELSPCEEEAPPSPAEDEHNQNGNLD

SMILES	IC50 (PDE1B [1]) [nM]	IC50 (PDE1A3 [2]) [µM]	bioavailability [3] [%]	IC50 (PDE1C [4]) [µM]	IC50 (PDE1C [5]) [µM]	Discrimination Index in novel object recognition test [6]	Kp uu at 1 h [7]	IC50 (PDE1B [8]) [µM]	IC50 (PDE1A3 [9]) [µM]
CCOC[C@H]1CC[C@H](COc2nn3c(C4CCOCC4)ncc3c(=O)n2C)CC1 [Example 288, 2-{[trans-4-(ethoxymethyl)cyclohexyl]methoxy}-3-methyl-7-(tetrahydro-2H-pyran-4-yl)-imidazo[5,1-][1,2,4]triazin-4(3H)-one]	< 1000	0.08	54.5	0.276	< 1	significant increase	0.61	0.023	< 1
CC(C)c1ncc2c(=O)n(C)c(NCc3ccc(Cl)cn3)nn12 [Example 149, 2-{[(5-chloropyridin-2-yl)methyl]amino}-3-methyl-7-(propan-2-yl)imidazo[5,1-f][1,2,4]triazin-4(3H)-one]	< 1000	0.144	55.6	0.425	< 1	significant increase	0.3	0.051	< 1
